Test results as given in the supplement of paper PMC11368000.

Experiments:
Conditions in all cases: exposure time: 90 min
1083 = donor line of iPSC-derived cardiomyocytes; assay: POD (EC05) for decrease in beat frequency (negative chronotrope) vs vehicle; higher = less potent (higher point of departure)
Experimental: (§1)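 Human iPSC-derived cardiomyocytes from 16 donors were exposed for 90 min at 37 °C to each PFAS at 0.1, 1, 10 and 100 µM in 0.5% DMSO, 384-well plates. Kinetic Ca2+ flux (FLIPR) and Hoechst nuclei counts were normalised to vehicle wells and fitted with a hierarchical Bayesian Hill model to give donor-specific PODs: EC05 for beat-rate increase or decrease and for decay-to-rise ratio increase (QT proxy), EC95 for peak-frequency loss (asystole), EC10 for total cell number loss. 0.03 µM is the lower bound.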

1118 = donor line of iPSC-derived cardiomyocytes; assay: as above
Experimental: as §1

11235 = donor line of iPSC-derived cardiomyocytes; assay: as above
Experimental: as §1

1309 = donor line of iPSC-derived cardiomyocytes; assay: as above
Experimental: as §1

1368 = donor line of iPSC-derived cardiomyocytes; assay: as above
Experimental: as §1

1392 = donor line of iPSC-derived cardiomyocytes; assay: as above
Experimental: as §1

1434 = donor line of iPSC-derived cardiomyocytes; assay: as above
Experimental: as §1

1516 [1] = donor line of iPSC-derived cardiomyocytes; assay: as above
Experimental: as §1

1518 [2] = donor line of iPSC-derived cardiomyocytes; assay: as above
Experimental: as §1

1531 [3] = donor line of iPSC-derived cardiomyocytes; assay: as above
Experimental: as §1

1535 = donor line of iPSC-derived cardiomyocytes; assay: as above
Experimental: as §1

1565 = donor line of iPSC-derived cardiomyocytes; assay: as above
Experimental: as §1

20032 = donor line of iPSC-derived cardiomyocytes; assay: as above
Experimental: as §1

20084 = donor line of iPSC-derived cardiomyocytes; assay: as above
Experimental: as §1

30145 [4] = donor line of iPSC-derived cardiomyocytes; assay: as above
Experimental: as §1

30171 = donor line of iPSC-derived cardiomyocytes; assay: as above
Experimental: as §1

30145 [5] = assay: POD (EC05) for increase in beat frequency (positive chronotrope) vs vehicle; higher = less potent (higher point of departure)
Procedure, shortened: (§2)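 Human iPSC-derived cardiomyocytes from 16 donors were cultured 14 days in gelatin-coated 384-well plates and loaded 2 h with fluorescent Ca2+ dye. They were then exposed for 90 min at 37 °C to 0.1, 1, 10 and 100 µM (final, 0.5% DMSO). Ca2+ flux was recorded on a FLIPR Tetra (8 frames/s, 100 s) before and after exposure. Donor-specific points of departure came from hierarchical Bayesian Hill fits to vehicle-normalised beat frequency, decay-to-rise ratio or peak frequency. Thresholds were 5% change, or 95% loss for peak frequency.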

1516 [6] = assay: POD (EC05) for increase in Ca2+ transient decay-to-rise ratio (QT prolongation) vs vehicle; higher = less potent (higher point of departure)
Procedure, shortened: as §2

1518 [7] = assay: as above
Procedure, shortened: as §2

1531 [8] = assay: as above
Procedure, shortened: as §2

**Q.** O=P(O)(O)CCC(F)(F)C(F)(F)C(F)(F)C(F)(F)C(F)(F)C(F)(F)C(F)(F)C(F)(F)F [((Perfluorooctyl)ethyl)phosphonic_acid] was tested. Which POD vs vehicle 1083 did it give?
**A.** > 100 µM

**Q.** What about the POD vs vehicle 1118 of the same compound?
**A.** > 100 µM

**Q.** And the POD vs vehicle 11235?
**A.** > 100 µM

**Q.** What about the POD vs vehicle 1309 of the same compound?
**A.** > 100 µM

**Q.** What about the POD vs vehicle 1368 of the same compound?
**A.** > 100 µM

**Q.** And the POD vs vehicle 1392?
**A.** > 100 µM

**Q.** What about the POD vs vehicle 1434 of the same compound?
**A.** > 100 µM

**Q.** And the POD vs vehicle 1516 [1]?
**A.** > 100 µM

**Q.** And the POD vs vehicle 1518 [2]?
**A.** > 100 µM

**Q.** What about the POD vs vehicle 1531 [3] of the same compound?
**A.** > 100 µM

**Q.** And the POD vs vehicle 1535?
**A.** > 100 µM

**Q.** What about the POD vs vehicle 1565 of the same compound?
**A.** > 100 µM

**Q.** What about the POD vs vehicle 20032 of the same compound?
**A.** > 100 µM

**Q.** And the POD vs vehicle 20084?
**A.** > 100 µM

**Q.** What about the POD vs vehicle 30145 [4] of the same compound?
**A.** > 100 µM

**Q.** What about the POD vs vehicle 30171 of the same compound?
**A.** > 100 µM

**Q.** What about the POD vs vehicle 30145 [5] of the same compound?
**A.** > 100 µM

**Q.** And the POD vs vehicle 1516 [6]?
**A.** > 100 µM

**Q.** And the POD vs vehicle 1518 [7]?
**A.** > 100 µM

**Q.** And the POD vs vehicle 1531 [8]?
**A.** > 100 µM

**Q.** Which results are given for O=S(=O)(O)CCC(F)(F)C(F)(F)C(F)(F)C(F)(F)C(F)(F)C(F)(F)F [6:2 Fluorotelomer sulfonic acid]?
**A.** POD vs vehicle 1083: > 100 µM; POD vs vehicle 1118: 12.8 µM; POD vs vehicle 11235: 6.84 µM; POD vs vehicle 1309: > 100 µM; POD vs vehicle 1368: > 100 µM; POD vs vehicle 1392: > 100 µM; POD vs vehicle 1434: > 100 µM; POD vs vehicle 1516 [1]: 33.5 µM; POD vs vehicle 1518 [2]: 42.6 µM; POD vs vehicle 1531 [3]: 25.1 µM; POD vs vehicle 1535: > 100 µM; POD vs vehicle 1565: 39.6 µM; POD vs vehicle 20032: > 100 µM; POD vs vehicle 20084: > 100 µM; POD vs vehicle 30145 [4]: > 100 µM; POD vs vehicle 30171: 24.5 µM; POD vs vehicle 30145 [5]: > 100 µM; POD vs vehicle 1516 [6]: > 100 µM; POD vs vehicle 1518 [7]: > 100 µM; POD vs vehicle 1531 [8]: > 100 µM

**Q.** What does the source list for O=C(O)C(F)(F)C(F)(F)C(F)(F)C(F)(F)C(F)(F)C(F)(F)C(F)(F)C(F)(F)C(F)(F)F [Perfluorodecanoic_acid]?
**A.** POD vs vehicle 1083: 18.3 µM; POD vs vehicle 1118: 2.31 µM; POD vs vehicle 11235: 15.5 µM; POD vs vehicle 1309: 56.2 µM; POD vs vehicle 1368: > 100 µM; POD vs vehicle 1392: 27.5 µM; POD vs vehicle 1434: 12.4 µM; POD vs vehicle 1516 [1]: 14.9 µM; POD vs vehicle 1518 [2]: > 100 µM; POD vs vehicle 1531 [3]: 64.4 µM; POD vs vehicle 1535: 66.5 µM; POD vs vehicle 1565: > 100 µM; POD vs vehicle 20032: > 100 µM; POD vs vehicle 20084: 77.6 µM; POD vs vehicle 30145 [4]: > 100 µM; POD vs vehicle 30171: 7.83 µM; POD vs vehicle 30145 [5]: > 100 µM; POD vs vehicle 1516 [6]: > 100 µM; POD vs vehicle 1518 [7]: > 100 µM; POD vs vehicle 1531 [8]: > 100 µM

**Q.** How did the POD vs vehicle 1083 turn out when O=C(O)C(F)(F)C(F)(F)C(F)(F)C(F)(F)F [Perfluoropentanoic_acid] was run?
**A.** > 100 µM

**Q.** And the POD vs vehicle 1118?
**A.** > 100 µM

**Q.** And the POD vs vehicle 11235?
**A.** > 100 µM

**Q.** What about the POD vs vehicle 1309 of the same compound?
**A.** > 100 µM

**Q.** What about the POD vs vehicle 1368 of the same compound?
**A.** > 100 µM

**Q.** What about the POD vs vehicle 1392 of the same compound?
**A.** > 100 µM

**Q.** And the POD vs vehicle 1434?
**A.** > 100 µM

**Q.** And the POD vs vehicle 1516 [1]?
**A.** > 100 µM

**Q.** And the POD vs vehicle 1518 [2]?
**A.** > 100 µM

**Q.** And the POD vs vehicle 1531 [3]?
**A.** > 100 µM

**Q.** And the POD vs vehicle 1535?
**A.** > 100 µM

**Q.** And the POD vs vehicle 1565?
**A.** > 100 µM

**Q.** What about the POD vs vehicle 20032 of the same compound?
**A.** > 100 µM

**Q.** What about the POD vs vehicle 20084 of the same compound?
**A.** > 100 µM

**Q.** And the POD vs vehicle 30145 [4]?
**A.** > 100 µM

**Q.** What about the POD vs vehicle 30171 of the same compound?
**A.** > 100 µM

**Q.** And the POD vs vehicle 30145 [5]?
**A.** > 100 µM

**Q.** And the POD vs vehicle 1516 [6]?
**A.** > 100 µM

**Q.** And the POD vs vehicle 1518 [7]?
**A.** > 100 µM

**Q.** And the POD vs vehicle 1531 [8]?
**A.** > 100 µM

**Q.** O=C(O)C(F)(F)C(F)(F)C(F)(F)C(F)(F)C(F)(F)C(F)(F)C(F)(F)C(F)(F)C(F)(F)C(F)(F)F [Perfluoroundecanoic_acid] was tested. Which POD vs vehicle 1083 did it give?
**A.** > 100 µM

**Q.** What about the POD vs vehicle 1118 of the same compound?
**A.** > 100 µM

**Q.** And the POD vs vehicle 11235?
**A.** 0.395 µM

**Q.** And the POD vs vehicle 1309?
**A.** > 100 µM

**Q.** What about the POD vs vehicle 1368 of the same compound?
**A.** > 100 µM

**Q.** What about the POD vs vehicle 1392 of the same compound?
**A.** > 100 µM

**Q.** And the POD vs vehicle 1434?
**A.** > 100 µM

**Q.** What about the POD vs vehicle 1518 [2] of the same compound?
**A.** 1.19 µM

**Q.** What about the POD vs vehicle 1531 [3] of the same compound?
**A.** > 100 µM

**Q.** And the POD vs vehicle 1535?
**A.** > 100 µM

**Q.** What about the POD vs vehicle 1565 of the same compound?
**A.** > 100 µM

**Q.** What about the POD vs vehicle 20032 of the same compound?
**A.** > 100 µM

**Q.** And the POD vs vehicle 20084?
**A.** > 100 µM

**Q.** And the POD vs vehicle 30145 [4]?
**A.** > 100 µM

**Q.** And the POD vs vehicle 30171?
**A.** 0.96 µM

**Q.** And the POD vs vehicle 30145 [5]?
**A.** > 100 µM

**Q.** And the POD vs vehicle 1516 [6]?
**A.** > 100 µM

**Q.** And the POD vs vehicle 1518 [7]?
**A.** 17.4 µM

**Q.** What about the POD vs vehicle 1531 [8] of the same compound?
**A.** > 100 µM
